Test results taken from ChEMBL document CHEMBL1125946, “Total synthesis of a homochiral arene-fused prostacyclin analog” (Bioorg Med Chem Lett, 1991).

Organism: Homo sapiens
Assay: Concentration required for the inhibition of collagen induced platelet aggregation; inactive
Format: functional

O=C(O)COc1ccc2c(c1)CC[C@@H]1[C@@H](C#C[C@@H](O)C3CCCCC3)[C@H](O)C[C@H]21
IC50: > 10 µM
